Results taken from patent publication US8778951B2, “Heteroaryl compounds and their uses” (Novartis AG, priority 2009, dated 2014).

Assays:
[1] = tested on: neointima formation; conditions: rats; cited from earlier work
[2] = target: Cdk9/cyclinT1 (Homo sapiens (Human), UniProt P50750); assay: Cdk9/CyclinT1 IMAP Protocol (fluorescence polarization kinase assay); format: biochemical; conditions: Table 2; generated using one of the two Cdk9/cyclinT1 assays (IMAP or Alpha Screen), not specified which; unit inferred
Summary of the method: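 Reaction used 4 nM Cdk9/cyclinT1, 100 nM 5TAMRA-cdk7tide peptide and 6 uM ATP in 100 mM Tris pH 7.2 with MgCl2, 0.01% Tween-20, 1 mM DTT and 2.5% DMSO, running 4.5 h. Phosphopeptide was captured by IMAP binding reagent for >1 h, then read by fluorescence polarization (ex 531/em 595 nm).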

Cdk9/cyclinT1, sequence (P50750 whole entry): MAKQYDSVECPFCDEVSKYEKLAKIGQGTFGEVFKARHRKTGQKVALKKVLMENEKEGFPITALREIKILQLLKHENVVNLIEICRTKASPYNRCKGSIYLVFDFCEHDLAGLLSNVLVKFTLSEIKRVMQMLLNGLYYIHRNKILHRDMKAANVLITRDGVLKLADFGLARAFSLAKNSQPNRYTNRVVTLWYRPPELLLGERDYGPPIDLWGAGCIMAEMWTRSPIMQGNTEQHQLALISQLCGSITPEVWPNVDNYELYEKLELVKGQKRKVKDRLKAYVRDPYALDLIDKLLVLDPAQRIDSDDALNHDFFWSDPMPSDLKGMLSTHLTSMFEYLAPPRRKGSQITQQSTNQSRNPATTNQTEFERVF
Cdk9/cyclinT1, sequence (O60563 whole entry partner): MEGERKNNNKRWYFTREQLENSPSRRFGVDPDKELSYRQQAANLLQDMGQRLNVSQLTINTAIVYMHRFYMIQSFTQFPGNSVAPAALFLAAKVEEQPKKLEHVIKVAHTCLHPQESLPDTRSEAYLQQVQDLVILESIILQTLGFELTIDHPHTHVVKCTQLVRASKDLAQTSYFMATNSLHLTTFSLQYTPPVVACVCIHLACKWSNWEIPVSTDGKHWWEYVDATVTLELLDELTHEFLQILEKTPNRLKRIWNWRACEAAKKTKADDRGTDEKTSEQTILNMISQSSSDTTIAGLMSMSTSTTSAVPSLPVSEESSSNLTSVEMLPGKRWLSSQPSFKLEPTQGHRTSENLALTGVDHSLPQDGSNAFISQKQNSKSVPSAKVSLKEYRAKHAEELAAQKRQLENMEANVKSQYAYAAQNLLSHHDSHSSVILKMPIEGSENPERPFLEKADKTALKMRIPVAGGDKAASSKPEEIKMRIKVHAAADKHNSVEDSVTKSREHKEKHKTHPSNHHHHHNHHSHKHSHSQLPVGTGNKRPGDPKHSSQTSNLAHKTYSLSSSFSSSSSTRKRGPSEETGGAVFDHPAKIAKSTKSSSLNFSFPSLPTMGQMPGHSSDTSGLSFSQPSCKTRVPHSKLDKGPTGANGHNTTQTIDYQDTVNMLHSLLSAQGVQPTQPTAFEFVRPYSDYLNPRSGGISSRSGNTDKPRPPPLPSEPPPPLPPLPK

Compound	inhibition of neointima formation [1]	IC50 [2]
COc1ccc(CNc2nc(N(CCO)CCO)nc3c2ncn3C(C)C)cc1 [CVT-313]	greater than 80%	–
CC1(C)OC[C@@H](CN[C@H]2CC[C@H](Nc3cc(-c4nc(NCC5CCOCC5)ccc4Cl)c(Cl)cn3)CC2)O1 [Compound 320, 3,5′-dichloro-N2′-(trans-4-(((R)-2,2-dimethyl-1,3-dioxolan-4-yl)methyl)aminocyclohexyl)-N6-((tetrahydro-2H-pyran-4-yl)methyl)-2,4′-bipyridine-2′,6-diamine]	–	1 nM
O=S1(=O)CCC(N[C@H]2CC[C@H](Nc3cc(-c4ccc(F)c(NCC5CCOCC5)n4)c(Cl)cn3)CC2)C1 (stereo partly shown) [Compound 322]	–	3 nM
COC[C@@H](C)N[C@H]1CC[C@H](Nc2cc(-c3nc(NC[C@@H]4CCCOC4)ccc3Cl)c(Cl)cn2)CC1 [Compound 323, 3,5′-dichloro-N2′-(trans-4-((R)-1-methoxypropan-2-yl-amino)cyclohexyl)-N6-(((S)-tetrahydro-2H-pyran-3-yl)methyl)-2,4′-bipyridine-2′,6-diamine]	–	1 nM
Fc1ccc(-c2cc(N[C@H]3CC[C@H](NCC4CCO4)CC3)ncc2Cl)nc1NCC1CCOCC1 (stereo partly drawn) [Compound 324, 5′-chloro-5-fluoro-N2′-(trans-4-(oxetan-2-yl-methylamino)cyclohexyl)-N6-((tetrahydro-2H-pyran-4-yl)methyl)-2,4′-bipyridine-2′,6-diamine]	–	2 nM
CS(=O)(=O)CCN[C@H]1CC[C@H](Nc2cc(-c3ccc(F)c(NCC4CCOCC4)n3)c(Cl)cn2)CC1 [Compound 326]	–	0.49 nM
COC[C@@H](C)N[C@H]1CC[C@H](Nc2cc(-c3nc(NC[C@H]4CCCOC4)ccc3Cl)c(Cl)cn2)CC1 [Compound 327, 3,5′-dichloro-N2′-(trans-4-((R)-1-methoxypropan-2-yl-amino)cyclohexyl)-N6-(((R)-tetrahydro-2H-pyran-3-yl)methyl)-2,4′-bipyridine-2′,6-diamine]	–	1 nM
O=S1(=O)CCC(CN[C@H]2CC[C@H](Nc3cc(-c4ccc(F)c(NCC5CCOCC5)n4)c(Cl)cn3)CC2)CC1 [Compound 331]	–	1 nM
CC1(CN[C@H]2CC[C@H](Nc3cc(-c4ccc(F)c(NCC5CCOCC5)n4)c(Cl)cn3)CC2)OCCO1 [Compound 333, 5′-chloro-5-fluoro-N2′-(trans-4-((2-methyl-1,3-dioxolan-2-yl)methyl)aminocyclohexyl)-N6-((tetrahydro-2H-pyran-4-yl)methyl)-2,4′-bipyridine-2′,6-diamine]	–	4 nM
COCCN[C@H]1CC[C@H](Nc2cc(-c3ccc(F)c(NCC4(C#N)CCOCC4)n3)c(Cl)cn2)CC1 [Compound 339]	–	0.17 nM
COC[C@@H](C)N[C@H]1CC[C@H](Nc2cc(-c3ccc(F)c(NCC4(C#N)CCOCC4)n3)c(Cl)cn2)CC1 [Compound 340, 4-((5′-chloro-5-fluoro-2′-(trans-4-((R)-1-methoxypropan-2-yl-amino)cyclohexylamino)-2,4′-bipyridin-6-ylamino)methyl)tetrahydro-2H-pyran-4-carbonitrile]	–	0.23 nM
N#CC1(CNc2nc(-c3cc(N[C@H]4CC[C@H](N)CC4)ncc3Cl)ccc2F)CCOCC1 [Compound 341]	–	0.15 nM
CCCN(CCC)[C@H]1CC[C@H](Nc2cc(-c3ccc(F)c(NCC4(C#N)CCOCC4)n3)c(Cl)cn2)CC1 [Compound 343]	–	0.31 nM
CC1(CNc2nc(-c3cc(N[C@H]4CC[C@H](NC5CCS(=O)(=O)CC5)CC4)ncc3Cl)ccc2F)CCOCC1 [Compound 346]	–	1 nM
CC1(CNc2nc(-c3cc(NC4CCC(NC5CS(=O)(=O)C5)CC4)ncc3Cl)ccc2F)CCOCC1 (stereo not shown) [Compound 347]	–	1 nM
O=S1(=O)CCC(N[C@H]2CC[C@H](Nc3cc(-c4nc(NCC5CCOCC5)ccc4Cl)c(Cl)cn3)CC2)CC1 [Compound 348, 3,5′-dichloro-N6-((tetrahydro-2H-pyran-4-yl)methyl)-N2′-(trans-4-(1,1-dioxo-tetrahydro-2H-thiopyran-4-ylamino)cyclohexyl)-2,4′-bipyridine-2′,6-diamine]	–	2 nM
COC[C@@H](C)N[C@H]1CC[C@H](Nc2cc(-c3cccc(NCC4(CO)CCOCC4)n3)c(Cl)cn2)CC1 [Compound 349, (4-((5′-chloro-2′-(trans-4-((R)-1-methoxypropan-2-ylamino)cyclohexylamino)-2,4′-bipyridin-6-ylamino)methyl)tetrahydro-2H-pyran-4-yl)methanol]	–	1 nM
COC[C@@H](C)N[C@H]1CC[C@H](Nc2cc(-c3cccc(NCC4(C#N)CCOCC4)n3)c(Cl)cn2)CC1 [Compound 358, 4-((5′-chloro-2′-((1R,4r)-4-((R)-1-methoxypropan-2-ylamino)cyclohexylamino)-2,4′-bipyridin-6-ylamino)methyl)tetrahydro-2H-pyran-4-carbonitrile]	–	0.17 nM
N#CC1(CNc2cccc(-c3cc(N[C@H]4CC[C@H](O)CC4)ncc3Cl)n2)CCOCC1 [Compound 359, 4-((5′-chloro-2′-((1r,4r)-4-hydroxycyclohexylamino)-2,4′-bipyridin-6-ylamino)methyl)tetrahydro-2H-pyran-4-carbonitrile]	–	0.24 nM
CCN[C@H]1CC[C@H](Nc2cc(-c3cccc(NCC4(C#N)CCOCC4)n3)c(Cl)cn2)CC1 [Compound 360, 4-((5′-chloro-2′-((1r,4r)-4-(ethylamino)cyclohexylamino)-2,4′-bipyridin-6-ylamino)methyl)tetrahydro-2H-pyran-4-carbonitrile]	–	0.28 nM
CN(C)[C@H]1CC[C@H](Nc2cc(-c3cccc(NCC4(C#N)CCOCC4)n3)c(Cl)cn2)CC1 [Compound 361, 4-((5′-chloro-2′-((1r,4r)-4-(dimethylamino)cyclohexylamino)-2,4′-bipyridin-6-ylamino)methyl)tetrahydro-2H-pyran-4-carbonitrile]	–	0.3 nM
COC[C@@H](C)N[C@H]1CC[C@H](Nc2cc(-c3cccc(NCC4(C)CCS(=O)(=O)CC4)n3)c(Cl)cn2)CC1 [Compound 365]	–	0.7 nM
CCN(CC)[C@H]1CC[C@H](Nc2cc(-c3cccc(NCC4(C#N)CCOCC4)n3)c(Cl)cn2)CC1 [Compound 366, 4-((5′-chloro-2′-((1r,4r)-4-(diethylamino)cyclohexylamino)-2,4′-bipyridin-6-ylamino)methyl)tetrahydro-2H-pyran-4-carbonitrile]	–	1 nM
COC[C@@H](C)N[C@H]1CC[C@H](Nc2cc(-c3ccc(F)c(NCC(CO)CO)n3)c(Cl)cn2)CC1 [Compound 367, 2-((5′-chloro-5-fluoro-2′-((1R,4r)-4-((R)-1-methoxypropan-2-ylamino)cyclohexylamino)-2,4′-bipyridin-6-ylamino)methyl)propane-1,3-diol]	–	3.1 nM
(S)-3-(trans-4-(3,5′-dichloro-6-((tetrahydro-2H-pyran-4-yl)methyl)amino-2,4′-bipyridin-2′-yl-amino)cyclohexylamino)-1,1,1-trifluoropropan-2-ol [Compound 289]	–	4 nM
